We go through one compound from patent US20110091570A1, “Compositions and Devices for Antisepsis and Anticoagulation” (priority 2008, published 2011).

Several values for one entry are separate records, joined by “and”; a condition that tells them apart may be missing. Equal values may be shown once.

One data set concerns Balb/c mice. Kind of data set: Injection of 1% NCT solution into the tail vein of mice (tolerability). The format is in vivo, mouse. On the procedure:
In this model, injection of 1% aqueous NCT solution was tolerated at a volume that equals approximately 10% of the total blood volume of a mouse. A 1% solution contains 55 mmol/L NCT, which is more than 1000 times greater than any physiologic concentration produced by human leukocytes.
Balb/c mice were injected into the tail vein with a sterile aqueous solution of 1% NCT. Four mice were injected with 0.05 ml, four mice with 0.1 ml, one mouse with 0.2 ml, and one mouse with 0.3 ml, respectively, of the NCT solution.
In this Example, injection of 1% aqueous NCT solution was tolerated in the mouse model at a volume that equals approximately 10% of the total blood volume of a mouse.

Data set [1] deals with Staphylococcus aureus (ATCC 25923). Kind of data set: Bactericidal activity of NCT without and with heparin (CFU counts). Type of data set: cell-based. On the procedure: FIG. 1 presents a plot of bactericidal activity of 1% NCT without and with 125 IE/mL heparin against Staphylococcus aureus ATCC 25923 at pH 7.1 and 37° C. Mean values standard error of the mean of three independent experiments. P>0.05 between NCT without and NCT with heparin.
(§1) NCT was dissolved in 0.1 M phosphate buffer containing either 125 IE/mL heparin or no heparin. The final NCT concentration was 1%. Various bacterial species were grown in tryptic soy broth overnight, were washed twice in saline and then suspended in the NCT and NCT/heparin solutions. The species were Staphylococcus aureus (ATCC 25923), Escherichia coli (ATCC 11229), Streptococcus pyogenes, Staphylococcus epidermidis, Pseudomonas aeruginosa, Proteus mirabilis, and methicillin-resistant Staphylococcus aureus. Controls were performed with the foregoing bacterial species suspended in 0.1 M phosphate buffer without additives and in 0.1 M phosphate buffer containing 125 IE/mL heparin. All of the solutions were incubated at 37° C. and pH 7.1. After 1, 3, 5, 8, and 10 minutes, aliquots of 100 μL were removed and diluted 10-fold or 100-fold in 0.6% sodium thiosulfate solution to inactivate the NCT. Aliquots (50 μL) of these dilutions were spread on tryptic soy agar plates. The plates were incubated at 37° C. and colony forming units of bacteria were counted after 24 and 48 hours. […]

The subject of the next data set is Proteus mirabilis. The data set is described as above. Type of data set: cell-based.
The test system of data set [2] is Escherichia coli (ATCC 11229). The data set is described as above. The format is cell-based. As to the method: FIG. 2 presents a plot of bactericidal activity of 1% NCT without and with 125 IE/mL heparin against Escherichia coli ATCC 11229 at pH 7.1 and 37° C. Mean values±standard error of the mean of three independent experiments. P>0.05 between NCT without and NCT with heparin.
as §1

The next data set deals with D-Dimer. Kind of data set: D-Dimer in citrate blood. The format is biochemical, human. As to conditions: Example 7; for D-Dimer: individual subjects 1-11; for D-Dimer, mean value: mean of 11 subjects. On the procedure: Whole blood was taken from 11 volunteers and enriched with trisodium citrate (0.3 mL of a 0.106 molar solution per 3 mL whole blood) (S-Monovette®, Sarstedt, Nümbrecht, Germany). Commercial coagulation tests (as described in Example 6) were performed with the following samples: […]

Data set [3] concerns Escherichia coli, ATCC 11229. Kind of data set: Bactericidal activity of NCT with heparin in human whole blood. The following applies: 37° C. The format is cell-based. As to the method:
FIG. 11 presents a plot of bactericidal activity of 1% NCT with 125 IE/mL heparin in human blood against Escherichia coli (ATCC 11229) at pH 7.1 and 37° C. Mean values±standard error of the mean of three independent experiments. P<0.01 between NCT and control samples.
Bacteria (Staphylococcus aureus, ATCC 25923 and Escherichia coli, ATCC 11229) grown in tryptic soy broth overnight were washed twice in saline and suspended in human whole blood containing 125 IE/mL heparin. Different volumes of a saline solution of NCT sodium salt were added to the suspension so that the test samples contained 10%, 25%, 50%, and 75% blood. In addition, 100% blood plus 125 IE/mL heparin was tested at which NCT was directly dissolved in blood. The final NCT concentration after mixing blood and NCT solutions was 1% in all samples. Controls contained 100% blood plus 125 IE/mL heparin and 10%, 25%, 50% and 75% blood, respectively, in saline, plus 125 IE/mL heparin without NCT. All of the solutions were incubated at 37° C. and pH 7.36-7.44 (the pH of blood). After 1, 3, 5, 10, 15, 30, 45 and 60 minutes, aliquots of 100 μL were removed and diluted tenfold or 100-fold in 0.6% sodium thiosulfate solution to inactivate the NCT. Aliquots (50 μL) of these dilutions were spread on tryptic soy agar plates. The plates were incubated at 37° C. and colony forming units of bacteria were counted after 24 and 48 hours. […]

The mark [4] stands for this setting: Balb/c mice, sterile aqueous 1% NCT, 0.05-0.3 ml i.v.
[5] abbreviates: 0.1% NCT, virtually identical experiments.
Where [6] appears, read: 1% NCT, 125 IE/mL heparin, pH 7.1, 37° C., 1-10 min.

Turning to `O=S(=O)(O)CCNCl` [NCT, N-chlorotaurine], in the data set with Balb/c mice (1% aqueous NCT solution i.v.), the tolerated injection volume result is “approximately 10 % of the total blood volume of a mouse”. Besides, the “changes of behaviour after tail vein injection” value in the data set on Balb/c mice (setting [4]) is on record as “no changes of behaviour”. In the data set with Balb/c mice (setting [4]), the “survival after tail vein injection” value was “all mice survived”. The “influence of heparin on the killing of bacteria” value (in data set [1] (setting [5]); in the data set with Proteus mirabilis (setting [5]); in data set [2] (setting [5])) was “no statistically significant influence of heparin on the killing of bacteria” each time. Also, the “killing activity of NCT with vs without heparin” value (in data set [1] (setting [6]); with Proteus mirabilis (setting [6]); in data set [2] (setting [6])) was “no difference in the killing activity” each time. For the same compound, the D-Dimer is 209 µg/L and 195 µg/L and 340 µg/L and 143 µg/L and 50 µg/L and 174 µg/L and 241 µg/L and 155 µg/L and 132 µg/L and 191 µg/L and 149 µg/L in the data set with D-Dimer (0.01% NCT); 200 µg/L and 179 µg/L and 316 µg/L and 122 µg/L and 50 µg/L and 153 µg/L and 227 µg/L and 143 µg/L and 126 µg/L and 172 µg/L and 132 µg/L in the data set on D-Dimer (0.025% NCT). The “D-Dimer, mean value” in the data set on D-Dimer (0.01% NCT) turned out to be 179.9 µg/L; in the data set with D-Dimer (0.025% NCT) it was 165.5 µg/L. The “bactericidal activity in blood” value in data set [3] (1% NCT dissolved in 100% blood plus 125 IE/mL heparin) is “no significant bactericidal activity was detected”; in data set [3] (1% NCT in 10%, 25%, 50% and 75% blood plus 125 IE/mL heparin) it was “demonstrated bactericidal activity”.
